Reference: the OligoGym collection
“And” between values parts separate entries of the source, which are not always exact repeats. Equal values may be shown once. After the bases stand the sugars from the 5' end (letter, count) and the backbone: PS all phosphorothioate, else s phosphorothioate and o phosphodiester by linkage. Methylation of C is not given here. e = 2'-O-(2-methoxyethyl) (MOE); k = constrained ethyl (cEt); d = 2'-deoxy (DNA)

Target: APOL1
Settings: ASO

Sequence | target mRNA inhibition (A431, 0.0625 µM) | target mRNA inhibition (A431, 0.25 µM) | target mRNA inhibition (A431, 1 µM) | target mRNA inhibition (A431, 0.0156 µM) | target mRNA inhibition (A431, 2 µM) | target mRNA inhibition (A431, 0.04 µM)
ATGAACGCAATGCTGA (sugars k4 d9 k3, PS) | 52% | 76% | 92% |  |  | 
ATGCTAATTTTCTGAC (sugars kkkddddkekekdddd, PS) | 46% | 68% | 88% | 26% | 95% | 
ATTCTATTAGAGGGCT (sugars k3 d5 k3 d5, PS) |  |  |  |  | 95% | 
ATTCTATTAGAGGGCT (sugars kekddddeekkddddd, PS) |  |  |  |  | 77% | 
ATTCTATTAGAGGGCT (sugars kkddddkdkdkddddd, PS) |  |  |  |  | 74% | 
ATTCTATTAGAGGGCT (sugars kkkddddkdkdkdddd, PS) |  |  |  |  | 78% | 
ATTCTATTAGAGGGCT (sugars kkkddddkekeddddd, PS) |  |  |  |  | 73% | 
ATTCTATTAGAGGGCT (sugars kkkddddkekekdddd, PS) |  |  |  |  | 37% | 
ATTCTCATGGTACAGG (sugars k4 d9 k3, PS) | 49% and 50% | 83% and 84% | 94% and 93% | 24% |  | 
ATTCTCATGGTACAGG (sugars kddddkekekeddddd, PS) |  |  |  |  | 51% | 
ATTCTCATGGTACAGG (sugars kekddddeekkddddd, PS) | 37% | 76% | 90% | 0% | 96% | 
ATTCTCATGGTACAGG (sugars kkddddekekeddddd, PS) | 41% | 71% | 90% | 40% | 95% | 
ATTCTCATGGTACAGG (sugars kkddddkekekkdddd, PS) |  |  |  |  | 34% | 
ATTTCTTGATGTGGTG (sugars k4 d9 k3, PS) | 95% | 99% | 99% |  |  | 
ATTTCTTGATGTGGTG (sugars kdddddkekekddddd, PS) | 50% | 80% | 91% | 22% | 96% | 
CAAGTCAGTACAGAGC (sugars k4 d9 k3, PS) | 57% | 82% | 94% |  |  | 
CACATCATTGGGTTAT (sugars k4 d9 k3, PS) | 65% | 84% | 90% |  |  | 
CACATCATTGGGTTAT (sugars kkdddddkekeddddd, PS) |  |  |  |  | 77% | 
CACATCATTGGGTTAT (sugars kkddddekekeddddd, PS) |  |  |  |  | 81% | 
CACATCATTGGGTTAT (sugars kkkddddkekekdddd, PS) |  |  |  |  | 58% | 
CACCATAGCACGAAGC (sugars k4 d9 k3, PS) | 23% | 53% | 72% |  |  | 
CACTTTACATGCACGA (sugars kkddddddddddkeke, PS) | 35% | 66% | 87% | 16% |  | 
CACTTTATACCAGTGT (sugars k2 d4 e3 k2 d5, PS) |  |  |  |  | 0% | 
CACTTTATACCAGTGT (sugars kkkddddkekekdddd, PS) |  |  |  |  | 11% | 
CAGATGGGTACTTCTG (sugars kkddddkekekkdddd, PS) |  |  |  |  | 10% | 
CAGCATTGAGTACAAC (sugars k3 d10 k3, PS) | 38% | 58% | 84% |  |  | 
CAGTACAGAGCAGGAT (sugars k4 d9 k3, PS) | 59% | 82% | 94% |  |  | 

Sequence | target mRNA inhibition (A431, 0.0625 µM) | target mRNA inhibition (A431, 0.25 µM) | target mRNA inhibition (A431, 1 µM) | target mRNA inhibition (A431, 0.0156 µM) | target mRNA inhibition (A431, 2 µM) | target mRNA inhibition (A431, 0.04 µM)
CAGTTTTGTAAGTGCA (sugars kekddddeekkddddd, PS) | 73% | 92% | 96% | 39% | 96% | 
CAGTTTTGTAAGTGCA (sugars kkdddddkekeddddd, PS) | 53% | 84% | 89% | 25% | 94% | 
CAGTTTTGTAAGTGCA (sugars kkkddddkekeddddd, PS) |  |  |  |  | 92% | 
CATTCAGAATTTCCAC (sugars k2 d4 e3 k2 d5, PS) |  |  |  |  | 78% | 
CATTCAGAATTTCCAC (sugars kkddddekekeddddd, PS) |  |  |  |  | 87% | 
CATTCAGAATTTCCAC (sugars kkddddkekekddddd, PS) |  |  |  |  | 76% | 
CATTCAGAATTTCCAC (sugars kkddddkekekkdddd, PS) |  |  |  |  | 57% | 
CATTTGGAGATCTGGC (sugars k4 d9 k3, PS) | 57% | 74% | 92% |  |  | 
CCACTTGAGTCATTTG (sugars k4 d9 k3, PS) | 40% | 72% | 90% |  |  | 
CCGTCAATATATTCTT (sugars kkkddddkekeddddd, PS) |  |  |  |  | 97% | 
CGCAATGCTGACTTGG (sugars k3 d4 k3 e1 d5, PS) | 61% | 83% | 92% | 34% | 94% | 50%
CGCAATGCTGACTTGG (sugars kkddddkekekddddd, PS) |  |  |  |  | 83% | 
CGTCAATATATTCTTT (sugars k3 d4 k3 e1 d5, PS) |  |  | 96% and 95% |  | 95% | 
CGTCAATATATTCTTT (sugars kkdddddkekeddddd, PS) |  |  |  |  | 87% | 
CGTCAATATATTCTTT (sugars kkddddkdkdkddddd, PS) |  |  |  |  | 91% | 
CGTCAATATATTCTTT (sugars kkkddddkekeddddd, PS) | 72% | 90% | 96% and 95% | 35% | 94% | 53% and 50%
CGTCAATATATTCTTT (sugars kkkddddkekekdddd, PS) | 55% | 84% | 93% | 25% | 94% | 
CGTGTTATATTTGATC (sugars k2 d4 e3 k2 d5, PS) |  |  |  |  | 74% | 
CGTGTTATATTTGATC (sugars kkkddddkekekdddd, PS) |  |  |  |  | 82% | 
CTAATTTTCTGACTGT (sugars k2 d4 e3 k2 d5, PS) |  |  |  |  | 83% | 
CTAATTTTCTGACTGT (sugars k2 d4 e4 k2 d4, PS) |  |  |  |  | 88% | 
CTAATTTTCTGACTGT (sugars kkdddddkekeddddd, PS) | 56% | 80% | 93% | 27% | 98% | 
CTATTAGAGGGCTAGT (sugars k4 d9 k3, PS) | 32% and 19% | 52% and 39% | 71% and 51% |  |  | 
CTATTAGAGGGCTAGT (sugars kdddddkekekddddd, PS) |  |  |  |  | 28% | 
CTATTAGAGGGCTAGT (sugars kkddddkekekkdddd, PS) |  |  |  |  | 25% | 
CTGAAGATTGGCTCTG (sugars k2 d4 e3 k2 d5, PS) |  |  |  |  | 54% | 
